Reference: patent publication US20230286973A1, “PROTEIN SECRETION INHIBITORS” (KEZAR LIFE SCIENCES, priority 2020, published 2023)

Key:
[1] = system: PD1-ss+10aa/Gaussia Luciferase; test: Dox-Induced PD1-ss-Gluc Assay; type: cell-based; conditions: 24 hr Dox induction; 293FRT/TO cells; read-out: 24 hr Dox Inducible PD1ssGluc 293FRT/TO: Mean IC50
Procedure, shortened: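 Flp-In 293 T-REx, stable line; Tet-regulated PD1-ss+10aa fused to Gaussia luciferase; plated day prior; cpd + doxycycline in DMSO/media; 37 °C, 5% CO2.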

[2] = system: TNFα-FL/Gaussia Luciferase; test: Dox Induced TNFα-FL-Gluc Assay; type: cell-based; conditions: for IC50: 24 hr Dox induction, 293FRT/TO cells, read-out: 24 hr Dox Inducible TNFaFLGluc 293FRT/TO: Mean IC50; for 24 hr Dox Inducible TNFaFLGluc 293FRT/TO: TNF/PD1: ratio of TNFaFLGluc IC50 to PD1ssGluc IC50
Procedure, shortened: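 Hygromycin/blasticidin-selected Flp-In 293 T-REx cells, TNFα-FL/Gaussia luciferase fusion under T-REx control; overnight plating, then compound in DMSO/media with doxycycline at 37 °C, 5% CO2; stereo-undefined structures tested as mixtures.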

[3] = system: HER3-ss+4aa/Gaussia Luciferase; test: Dox-Induced Her3-ss-Gluc Assay; type: cell-based; conditions: 24 hr Dox induction; 293FRT/TO cells; read-out: 24 hr Dox Inducible Her3(ss + 4)Gluc 293FRT/TO: Mean IC50
Description: Flp-In 293 T-REx™ cells were transfected with pcDNA™5/FRT/TO plasmid inserted with cDNA encoding Gaussia Luciferase fused to the 3′ end of cDNA encoding HER3 signal sequence plus 4 amino acids (N-[…]-C) (SEQ ID NO: 2). Transfected cells were selected for resistance to the selectable markers Hygromycin and Blasticidin to create a stable cell line that contained the HER3-ss+4aa/Gaussia Luciferase cDNA insert whose expression was regulated under the T-REx™ system. The day before assay, cells were trypsinized and plated in 384-well tissue culture plates. The next day, compound dilutions in DMSO/media containing doxycycline were added to the wells and incubated at 37° C., 5% CO2.
For chemical structures that include one or more stereoisomers, but are illustrated without indicating stereochemistry, the assay data refers to a mixture of stereoisomers.

[4] = system: IL-2-FL/Gaussia Luciferase; test: Dox Induced IL2-FL-Gluc Assay; type: cell-based; conditions: for IC50: 24 hr Dox induction, 293FRT/TO cells, read-out: 24 hr Dox Inducible IL2FLGluc 293FRT/TO: Mean IC50; for 24 hr Dox Inducible IL2FLGluc 293FRT/TO: IL2/PD1: ratio of IL2FLGluc IC50 to PD1ssGluc IC50
Procedure, shortened: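 A hygromycin- and blasticidin-resistant 293 T-REx clone carrying inducible IL-2–Gaussia luciferase (full-length IL-2, residues 1-153) serves as the cell system. After overnight plating, the cells get test compounds together with doxycycline in DMSO/media and are incubated at 37° C, 5% CO2.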

[5] = system: multiple myeloma cell line NCI-H929; test: H929 Cell Viability Assay; type: cell-based, human; conditions: Homo sapiens, NCI-H929, 48 h, NCI-H929 cells, Celltiter-Glo
Procedure, shortened: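 A 48-hour compound treatment of cells in 10% FBS RPMI medium was followed by luciferase-based viability quantification.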

[6] = system: multiple myeloma cell line U266B1; test: U266 Cell Viability Assay; type: cell-based, human; conditions: Homo sapiens, U-266, 48 h, U266B1 cells, Celltiter-Glo
Procedure, shortened: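 After growth in serum-supplemented RPMI 1640, cells received serially diluted compound in DMSO/media and were kept 48 hours before a CellTiter-Glo luminescence readout.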

[7] = Liver Microsome Stability Assay (rat); conditions: rat liver microsomes, with NADPH, 1.0 uM compound
Description: (§1) Stability of a compound was assessed in the presence of liver microsomes from various sources—mouse, rat, monkey and human liver microsomes. 1.0 uM compound, 0.4% DMSO in 0.1 M Potassium Phosphate with 1.0 mg/mL liver microsomes, were incubated at 37° C. with or without 1 mM NADPH. The samples were quenched at 0, and 30 minutes.

[8] = Liver Microsome Stability Assay (mouse); conditions: mouse liver microsomes, with NADPH, 1.0 uM compound
Description: as §1

[9] = Liver Microsome Stability Assay (human); conditions: human liver microsomes, with NADPH, 1.0 uM compound
Description: as §1

[10] = Liver Microsome Stability Assay (monkey); conditions: monkey liver microsomes, with NADPH, 1.0 uM compound
Description: as §1

Row | SMILES | IC50 [1] [nM] | IC50 [2] [nM] | 24 hr Dox Inducible TNFaFLGluc 293FRT/TO: TNF/PD1 [2] | IC50 [3] [nM] | IC50 [4] [nM] | 24 hr Dox Inducible IL2FLGluc 293FRT/TO: IL2/PD1 [4] | EC50 [5] [nM] | EC50 [6] [µM] | Liver Microsome Stability (Multiple Species): Rat - % Remaining after 30 min w/NADPH [7] [%] | Liver Microsome Stability (Multiple Species): Mouse - % Remaining after 30 min w/NADPH [8] [%] | Liver Microsome Stability (Multiple Species): Human - % Remaining after 30 min w/NADPH [9] [%] | Liver Microsome Stability (Multiple Species): Monkey - % Remaining after 30 min w/NADPH [10] [%]
1 | CNc1ccc(N2CCC[C@@H]2c2csc(NC(=O)c3cccn3Cc3ccncc3)n2)cc1 [Compound A15] | 34.2 | 875 | 25.6 | 72.5 | 97.1 | 2.8 | 767 | 7.35 | 17.7 | 10.5 | 5.24 | 1.86
2 | CN(C)c1ccc(N2CCC[C@@H]2c2csc(NC(=O)c3cccn3Cc3ccncc3)n2)cc1 [Compound A16, (R)-N-(4-(1-(4-(dimethylamino)phenyl)pyrrolidin-2-yl)thiazol-2-yl)-1-(pyridin-4-ylmethyl)-1H-pyrrole-2-carboxamide] | 5.06 | 127 | 25 | 8.37 | 10.6 | 2.1 | 119 | 2.14 | 0.15 | 0.26 | 0.34 | 0.17
3 | CNC(=O)c1ccc(N2CCC[C@@H]2c2csc(NC(=O)c3cccn3Cc3ccncc3)n2)cc1 [Compound A17, (R)-N-(4-(1-(4-(methylcarbamoyl)phenyl)pyrrolidin-2-yl)thiazol-2-yl)-1-(pyridin-4-ylmethyl)-1H-pyrrole-2-carboxamide] | 6.69 | 178 | 26.6 | 11.5 | 16.7 | 2.5 | 161 | > 25 | 0.38 | 2.94 | 0.32 | 0.22
4 | CN(C)C(=O)c1ccc(N2CCC[C@@H]2c2csc(NC(=O)c3cccn3Cc3ccncc3)n2)cc1 [Compound A18, (R)-N-(4-(1-(4-(dimethylcarbamoyl)phenyl)pyrrolidin-2-yl)thiazol-2-yl)-1-(pyridin-4-ylmethyl)-1H-pyrrole-2-carboxamide] | 64.2 | 1020 | 15.9 | 109 | 145 | 2.3 | 1580 | > 25 | 0.17 | 3.75 | 0.05 | 0.08
5 | NC(=O)c1ccc(N2CCC[C@@H]2c2csc(NC(=O)c3cccn3Cc3ccncc3)n2)cc1 [Compound A19] | 2.46 | 45.3 | 18.4 | 5.66 | 9.11 | 3.7 | 219 | > 25 | 0.39 | 3.24 | 0.48 | 0.17
6 | Nc1ccc(N2CCC[C@@H]2c2csc(NC(=O)c3cccn3Cc3ccncc3)n2)cc1 [Compound A20] | 16.4 | 131 | 8 | 40.3 | 39.6 | 2.4 | 340 | 4.7 | 26.3 | 7.28 | 4.63 | 2.72
7 | Cc1ccc(N2CCC[C@@H]2c2csc(NC(=O)c3cccn3Cc3ccncc3)n2)cc1 [Compound A21, (R)-1-(pyridin-4-ylmethyl)-N-(4-(1-(p-tolyl)pyrrolidin-2-yl)thiazol-2-yl)-1H-pyrrole-2-carboxamide] | 0.89 | 27.1 | 30.4 | 2.61 | 3.87 | 4.3 | 54.1 | > 25 | 11 | 6.31 | 4.28 | 1.43
8 | O=C(Nc1nc([C@H]2CCCN2c2ccc(F)cc2)cs1)c1cccn1Cc1ccncc1 [Compound A25, (R)-N-(4-(1-(4-fluorophenyl)pyrrolidin-2-yl)thiazol-2-yl)-1-(pyridin-4-ylmethyl)-1H-pyrrole-2-carboxamide] | 9.92 | 240 | 24.2 | 20.7 | 17.5 | 1.8 | 412 | 16.1 | 1.84 | 1.56 | 3.01 | 1.66
